Laboratory results as given in patent publication US5225436A, “Aryl substituted naphthalene derivatives” (Schering Corporation, priority 1991, dated 1993).
Where two headings read alike, the source gives them in different places.

How the values were obtained:
[1] = target: T1, 5-lipoxygenase (Homo sapiens, UniProt P09917); assay: 5-Lipoxygenase assay with human neutrophils; format: cell-based; conditions: 5 min, Human PMN; for inhibition at 15 µM: dose 15 μm (μM)
T1 construct: Human polymorphonuclear leukocytes (neutrophils) were obtained from normal healthy volunteers; endogenous in cells; host or cells: human blood neutrophils from healthy volunteers
T1 sequence (P09917 1-674): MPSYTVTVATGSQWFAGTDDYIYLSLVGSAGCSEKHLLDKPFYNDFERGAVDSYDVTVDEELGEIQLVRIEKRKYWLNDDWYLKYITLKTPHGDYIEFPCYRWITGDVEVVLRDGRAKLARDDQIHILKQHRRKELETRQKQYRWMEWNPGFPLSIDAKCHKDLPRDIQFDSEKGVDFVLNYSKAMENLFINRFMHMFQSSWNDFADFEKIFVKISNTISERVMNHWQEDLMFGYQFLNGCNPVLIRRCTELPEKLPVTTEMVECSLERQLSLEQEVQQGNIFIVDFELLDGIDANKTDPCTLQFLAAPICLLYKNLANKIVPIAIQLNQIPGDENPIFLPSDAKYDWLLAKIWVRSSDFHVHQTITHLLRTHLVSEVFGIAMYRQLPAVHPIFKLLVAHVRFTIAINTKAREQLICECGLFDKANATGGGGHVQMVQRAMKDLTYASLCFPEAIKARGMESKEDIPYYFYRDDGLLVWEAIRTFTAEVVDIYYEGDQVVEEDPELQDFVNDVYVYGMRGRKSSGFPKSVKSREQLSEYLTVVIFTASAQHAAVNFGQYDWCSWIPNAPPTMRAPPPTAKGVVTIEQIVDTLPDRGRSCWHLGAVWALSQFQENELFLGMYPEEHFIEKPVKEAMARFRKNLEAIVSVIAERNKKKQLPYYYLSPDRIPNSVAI
Experimental: Human polymorphonuclear leukocytes (neutrophils) were obtained from normal healthy volunteers by venipuncture and collected with heparin anticoagulant. Neutrophils were isolated by Dextran/Ficol sedimentation as described (Billah et al., J. Biol. Chem. 260, 6899-6906 (1985)). In brief, 30 ml of blood was mixed with 5 ml of dextran (Sigma) solution and kept at 37° C. for 30 min. The upper white cell-rich layer was removed and 10 ml was layered on 9 ml of Ficol-Paque solution (Pharmacia) and centrifuged at 280 xg for 10 min. at 5° C. The supernatant was removed and the neutrophil pellet was resuspended in HEPES buffer containing 25 mM N-2-hydroxyethylpiperazine-N^1 -2-ethanesulfonic acid HEPES, 125 mM NaCl, 2.5 mM KCl, 0.7 mM MgCl2, […] 10 mM glucose at pH 7.4. The red cells in the suspension were lysed by hypotonic shock. The neutrophils were washed by centrifugation in HEPES buffer two times and finally resuspended at a concentration of 20×10^6 cells/ml in the presence of 1 mM CaCl2.
Neutrophils (0.2 ml of suspension) were preincubated with dimethylsulfoxide (DMSO) vehicle with or without test compound (1 ul) for 4 minutes then incubated for 5 minutes with [^14 C] arachidonic acid (Amersham, 59 Ci/mole) at a 9 uM final concentration, and the calcium ionophore A23187 (Calbiochem) at a 1 uM final concentration. These stimulants were added in 10 ul of water:ethanol (9:1). The reaction was stopped by addition of methanol (0.4 ml), and cellular debris was removed by centrifugation. Aliquots (100 ul) of the incubations were run on a Waters two pump HPLC system fitted with a DuPont Zorbax ODS, 5u, […] Reliance Cartridge column and C18 "Guard Pak". The column was initially eluted at 2 ml/min with 80% of the mixture water:methanol:acetic acid (46:54:0.08) containing 1 mM EDTA adjusted to pH 6.0 with ammonium hydroxide (Pump A) and 20% methanol (Pump B). At 10 minutes, a linear gradient to reach 100% methanol (Pump B) at 27 minutes was established. Between 27 and 28 minutes, methanol was exchanged for the initial eluting solvent and by 35 minutes the column had been reequilibrated for the next sample. The effluent was analyzed by a continuous flow radioactivity monitor (model ROMONA-D) interfaced with a Hewlett Packard Lab Automation System for quantitation of radioactive products. These were predominantly leukotriene B4 (LTB4) which eluted at 7 minutes, and 5-hydroxyeicosatetraenoic acid (5-HETE) which eluted at 20 minutes.

[2] = test system: SRS-A / leukotriene release from antigen-challenged, sensitized guinea pig lung; assay: Inhibition of SRS-A (leukotriene) release from antigen-challenged, sensitized guinea pig lung; format: cell-based; design: inhibition: dose or concentration left out as unconfirmed; conditions: Cavia porcellus; for inhibition: Dose 30 μm (μM)
Source text: The anti-allergy method of this invention is identified by tests which measure a compound's inhibition of leukotriene release in sensitized guinea pigs. Sensitized guinea pigs are killed by a blow to the head and the lungs removed and cleaned of visible connective tissue, trachea and large blood vessels. The lungs from individual animals are sliced into fragments approximately 1 mm in thickness using a McIlwain tissue chopper and then washed with oxygenated Tyrode's buffer. Weighed aliquots (approximately 400 mg wet weight) of lung are transferred into vials containing 2 ml of fresh Tyrode's solution (containing 10 mM cysteine) and incubated in the presence or absence of test compound for 12 min at 37° C. The tissues are then challenged with 20 μg ovalbumin/ml (final concentration) and incubated for 15 min. To measure leukotriene release, an aliquot of supernatant fluid is extracted with 4 volumes of 100% ethanol. After removal of the precipitated protein, the clear fluid is dried under a stream of N2 gas. The leukotriene content is measured by a radioimmunoassay using [^3 H]LTC4 and antiserum obtained from New England Nuclear. The cross-reactivity of the antiserum for LTD4 is 55%. Percent inhibition of lekotriene release is calculated by comparing for each lung the release in the presence of the test compound to that in the absence of test compound. Representative compounds of the invention at a relative dose of 50 μM of tissue are found to inhibit leukotriene release in the test procedure as indicated below in Table 1: […]

Row | inhibition at 15 µM ([1]; read-out: % Inhibition 5-HETE) | inhibition at 15 µM ([1]; read-out: % Inhibition LTB) | SMILES | further results
1 | 36% | – | COc1cc(OC)c2c(c1)C(C)(C)C(c1ccc(OC)c(OC)c1)CC2Sc1ccc(Cl)cc1 (stereo not drawn) [listing 1 of 2 here] | –
2 | 90% | 96% | CC1=C(c2ccc(O)c(O)c2)C(C)(C)c2cc(O)cc(O)c2C1=O | inhibition at 5 µM ([1]; read-out: % Inhibition 5-HETE): 13%; inhibition at 5 µM ([1]; read-out: % Inhibition LTB): 46%
3 | 0% | – | COc1cc(OC)c2c(c1)C(C)(C)C(c1ccc(OC)c(OC)c1)CC2=NOC(=O)C(C)(C)C (stereo not drawn) | –
4 | – | – | CC(=O)Oc1cc(OC(C)=O)c2c(c1)C(C)(C)C(c1ccc(OC(C)=O)c(OC(C)=O)c1)CC2=O (stereo not drawn) | inhibition at 50 µM [2]: 48%
5 | 88% | – | COc1ccc(CC2(Cc3ccc(OC)cc3)CC(C)(C)c3cc(OC)cc(OC)c3C2=O)cc1 [drawing 102 [A=drawing 104; B=drawing 105]] | –
6 | 0% | 0% | COc1cc(OC)c2c(c1)C(C)(C)C(c1ccc(OC)c(OC)c1)CC2=NNC(C)=O (stereo not drawn) | –
7 | 7% | 1% | COc1cc(OC)cc(C2=CC(=O)c3c(cc(OC)c(OC)c3OC)C2(C)C)c1 [drawing 101 [R3/R4=O; E,G,P,L,K=OCH3; db yes]] | –
8 | 69% | 89% | CCOC(=O)C1C(=O)c2c(OC)cc(OC)cc2C(C)(C)C1c1ccc(OC)c(OC)c1 (stereo not drawn) | –
9 | 23% | – | COc1ccc(C2CC(=O)c3c(OC)cccc3C2(C)C)cc1OC (stereo not drawn) | –
10 | 64% | – | COc1cc(OC)c2c(c1)C(C)(C)CC(c1ccccc1)C2=O (stereo not drawn) [drawing 102 [A=C6H5; B=H]] | –
11 | 13% | 18% | COc1cc(OC)c2c(c1)C(C)(C)C(c1ccc(OC)c(OC)c1)CC2=NOC(C)=O (stereo not drawn) | –
12 | 28% | – | COc1ccc(C2=CC(=O)c3c(OC)cccc3C2(C)C)cc1OC | –
13 | – | – | CC(=O)Oc1cc(OC(C)=O)c2c(c1)C(C)(C)[C@H](c1ccc(OC(C)=O)c(OC(C)=O)c1)[C@H](OC(C)=O)C2=O (relative stereo) | inhibition at 50 µM [2]: 26%
14 | – | – | COc1cc(OC)cc(C2=CC(=O)c3c(OC)cc(OC)cc3C2(C)C)c1 [drawing 84 [K=H]] | inhibition [2]: 33%
15 | 46% | 46% | COc1cc(OC)cc(C2CCC(=O)c3c(OC)cc(OC)cc3C2(C)C)c1 (stereo not drawn) [8-(3,5-dimethoxyphenyl)-6,7,8,9-tetradydro-2,4-dimethoxy-9,9-dimethyl-5H-benzocyclohepten-5-one] | –
16 | 22% | 38% | COc1cc(OC)c2c(c1)C(C)(C)C(c1ccc(OC)c(OC)c1)CC2=NNC(=O)c1ccccc1 (stereo not drawn) | –
17 | – | – | COc1ccc(CC2CC(C)(C)c3cc(OC)cc(OC)c3C2=O)cc1 (stereo not drawn) [drawing 85 [A=drawing 86; B=H]] | inhibition [2]: 0%
18 | 61% | – | COc1cc(OC)c2c(c1)C(C)(C)C(c1ccc(OC)c(OC)c1)CC(Sc1ccccc1)C2=O (stereo not drawn) | –
19 | – | – | CC(=O)Oc1cc(OC(C)=O)c2c(c1)C(C)(C)[C@H](c1ccc(OC(C)=O)c(OC(C)=O)c1)[C@@H](OC(C)=O)C2=O (relative stereo) | inhibition at 50 µM [2]: 41%

Row | inhibition at 15 µM ([1]; read-out: % Inhibition 5-HETE) | inhibition at 15 µM ([1]; read-out: % Inhibition LTB) | SMILES | further results
20 | 20% | 2% | COc1cc(OC)c2c(c1)C(C)(C)C(c1ccc(OC)c(OC)c1)C(C)C(=O)O2 (stereo not drawn) [drawing 106 [X=O; R3/R4=O; J=CH3; L,P=OCH3], 4-(3,4-dimethoxyphenyl)-4,5-dihydro-7,9-dimethoxy-3,5,5-trimethyl-1-benzoxepin-2(3H)-one] | –
21 | – | 0% | C=CCC1C(=O)c2c(OC)cc(OC)cc2C(C)(C)C1c1ccc(OC)c(OC)c1 (stereo not drawn) | –
22 | – | – | COc1cc(O)c2c(c1)C(C)(C)C(c1ccc(OC)c(OC)c1)=CC2=O | inhibition at 50 µM [2]: 10%
23 | – | – | COc1cc(OC)c2c(c1)C(C)(C)C(c1ccc(OC)c(OC)c1)CC21OCCO1 (stereo not drawn) | inhibition [2]: 23%
24 | – | – | COc1cc(OC)c2c(c1)C(C)(C)[C@H](c1ccc(OC)c(OC)c1)[C@@H](OC(C)=O)C2=O (relative stereo) | inhibition at 50 µM [2]: 12%
25 | – | – | COc1cc(OC)c2c(c1)C(C)(C)C(c1ccc(OC)c(OC)c1)CC2Sc1ccc(Cl)cc1 (stereo not drawn) [listing 2 of 2 here] | inhibition [2]: 14%
26 | 35% | – | COc1cc(OC)c2c(c1)C(C)(C)C(c1ccc(OC)c(OC)c1)CC2=NN (stereo not drawn) | –
27 | 11% | – | CC1(C)C(c2cc(O)cc(O)c2)=CC(=O)c2c(O)cc(O)cc21 | –
28 | 55% | 47% | CON=C1CC(c2ccc(OC)c(OC)c2)C(C)(C)c2cc(OC)cc(OC)c21 (stereo not drawn) | –
29 | – | – | COc1ccc(CC2(Cc3ccc(OC)cc3)CC(C)(C)c3cc(OC)cc(OC)c3C2=O)cc1 [drawing 85 [A=drawing 87; B=drawing 88]] | inhibition [2]: 16%
30 | 41% | 50% | COc1cc(OC)c2c(c1)C(C)(C)C(c1ccc(OC)c(OC)c1)CC2=NNC(=O)c1ccccc1O (stereo not drawn) | –
31 | 0% | 0% | COc1cc(OC)cc(C2=CC(=O)c3c(OC)cc(OC)cc3C2(C)C)c1 | –
32 | 61% | 22% | COc1ccc(C2CC(=O)Cc3c(OC)cccc3C2(C)C)cc1OC (stereo not drawn) [8-(3,4-dimethoxyphenyl)-9,9-dimethyl-4-methoxy-5,7,8,9-tetrahydro-6H-benzocyclohepten-6-one] | –
33 | 48% | – | COc1cc(OC)c2c(c1)C(C)(C)C(c1ccc(OC)c(OC)c1)C=CC2=O (stereo not drawn) | –
34 | 86% | – | COc1ccc(CC2CC(C)(C)c3cc(OC)cc(OC)c3C2=O)cc1 (stereo not drawn) [drawing 102 [A=drawing 103; B=H]] | –
35 | – | – | COc1cc(OC)cc(C2=CC(=O)c3c(cc(OC)c(OC)c3OC)C2(C)C)c1 [drawing 84 [K=OCH3]] | inhibition [2]: 21%
36 | 39% | 28% | COc1cc(OC)c2c(c1)C(C)(C)C(c1ccc(OC)c(OC)c1)CCO2 (stereo not drawn) [drawing 106 [X=O; R3/R4=H,H; J=H; L,P=OCH3]] | –
37 | 79% | – | COc1ccc2c(c1)C(C)(C)C(c1ccc(OC)c(OC)c1)=CC2=O | –

Row | SMILES | inhibition at 15 µM ([1]; read-out: % Inhibition 5-HETE) | inhibition at 15 µM ([1]; read-out: % Inhibition LTB) | further results
38 | COc1cc(O)c2c(c1)C(C)(C)C(c1ccc(OC)c(OC)c1)CC2=O (stereo not drawn) | 0% | – | –
39 | COc1cc(O)c2c(c1)C(C)(C)C(c1cc(O)cc(O)c1)CC2=O (stereo not drawn) | 75% | – | –
40 | CC1(C)c2cc(O)cc(O)c2C(=O)CCC1c1ccc(O)c(O)c1 (stereo not drawn) [drawing 107 [X=O; db no; W,J,F=H; E,G,L,P=OH]] | 88% | – | –
41 | CC1(C)c2cc(O)cc(O)c2C(=O)CC1c1cccc(O)c1 (stereo not drawn) | 23% | – | –
42 | CC1(C)c2cc(O)cc(O)c2C(=NO)CC1c1cc(O)cc(O)c1 (stereo not drawn) | 57% | – | –
